Values of other authors, collected in patent US20110130383A1, “Use of Ion Channel Modulators in the Prophylaxis and Treatment of Inflammatory and Immunological Diseases” (LECTUS THERAPEUTICS LIMITED, priority 2006, published 2011).

Tests used:
[1] = target: Kv1.3 channels (Homo sapiens, UniProt P22001); conditions: inhibition of Kv1.3 channels versus cardiac Kv1.5 channels
[2] = rats, 28-day, administered by gavage; tissues including those reported to express Kv1.3 channels

Kv1.3 channels, sequence (P22001 whole entry): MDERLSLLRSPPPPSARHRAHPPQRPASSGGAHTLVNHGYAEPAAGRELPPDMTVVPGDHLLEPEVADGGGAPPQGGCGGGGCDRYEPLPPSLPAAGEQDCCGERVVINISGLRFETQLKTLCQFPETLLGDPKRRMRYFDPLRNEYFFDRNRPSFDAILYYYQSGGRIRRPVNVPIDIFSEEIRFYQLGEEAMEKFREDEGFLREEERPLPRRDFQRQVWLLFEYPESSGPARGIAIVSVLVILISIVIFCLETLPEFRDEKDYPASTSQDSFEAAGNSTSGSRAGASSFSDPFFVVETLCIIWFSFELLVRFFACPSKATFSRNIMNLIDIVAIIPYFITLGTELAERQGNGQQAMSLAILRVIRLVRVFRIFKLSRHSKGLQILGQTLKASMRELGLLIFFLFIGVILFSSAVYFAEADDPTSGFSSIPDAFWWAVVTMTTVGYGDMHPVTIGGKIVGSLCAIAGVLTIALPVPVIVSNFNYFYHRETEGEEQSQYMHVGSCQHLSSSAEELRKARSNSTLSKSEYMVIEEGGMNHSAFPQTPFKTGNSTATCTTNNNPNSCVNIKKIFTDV

O=c1ccc2c(OCCCCOc3ccccc3)c3ccoc3cc2o1 [PAP-1]
selectivity over cardiac Kv1.5 channels [1]: 23 fold | histopathological changes in tissues examined [2]: failed to induce any histopathological changes
